Data reported in patent US11485987B2, “Methods for inducing bioorthogonal reactivity” (University of Delaware, priority 2015, dated 2022).

Target: T1, horseradish peroxidase (HRP) (Armoracia rusticana, UniProt P00433)
T1 sequence (P00433 31-338): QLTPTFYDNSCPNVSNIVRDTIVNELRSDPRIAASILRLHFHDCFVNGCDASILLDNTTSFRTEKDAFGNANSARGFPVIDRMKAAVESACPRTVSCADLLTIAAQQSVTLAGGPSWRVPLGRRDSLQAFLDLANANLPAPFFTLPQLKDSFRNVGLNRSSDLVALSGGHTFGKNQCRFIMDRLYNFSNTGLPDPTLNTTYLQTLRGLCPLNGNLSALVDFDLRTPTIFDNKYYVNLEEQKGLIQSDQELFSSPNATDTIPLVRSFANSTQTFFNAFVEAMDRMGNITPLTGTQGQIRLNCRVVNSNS
Test: Horseradish peroxidase (HRP) catalyzed oxidation of DHTz to tetrazine
Assay type: biochemical
Conditions: [3a] 8 μM; HRP 15 nM; first 10 seconds

O=C(O)CCC(=O)Nc1ccc(C2=NNC(c3ccccn3)=NN2)nc1 [3a, 4-oxo-4-((6-(6-(pyridin-2-yl)-1,4-dihydro-1,2,4,5-tetrazin-3-yl)pyridin-3-yl)amino)butanoic Acid]
Rate of HRP Oxidation of 3a: 3.4e-08 M/s
